Measured values as given in ChEMBL document CHEMBL4680158, “C6-O-alkylated 7-deazainosine nucleoside analogues: Discovery of potent and selective anti-sleeping sickness agents” (Eur J Med Chem, 2020).

What was measured:
[1] = system: Trypanosoma brucei brucei; assay: Antitrypanosomal activity against Trypanosoma brucei brucei assessed as reduction in parasite growth incubated for 3 days by resazurin dye based fluorescence assay; format: functional, organism-based; settings: 72 h
[2] = system: Trypanosoma brucei rhodesiense; assay: Antitrypanosomal activity against Trypanosoma brucei rhodesiense assessed as reduction in parasite growth incubated for 3 days by resazurin dye based fluorescence assay; format: functional, organism-based; settings: 72 h
MRC5 = assay: Cytotoxicity against human MRC5 cells assessed as reduction in cell viability incubated for 3 days by resazurin dye based fluorescence assay; settings: MRC5, 72 h
[3] = Selectivity index, ratio of EC50 for cytotoxicity against human MRC5 cells to EC50 for antitrypanosomal activity against Trypanosoma brucei brucei; format: toxicity, cell-based; settings: read-out: Ratio EC50
[4] = Selectivity index, ratio of EC50 for cytotoxicity against human MRC5 cells to EC50 for antitrypanosomal activity against Trypanosoma brucei rhodesiense; format: toxicity, cell-based; settings: read-out: Ratio EC50
[5] = Resistance factor, ratio of EC50 for antitrypanosomal activity against drug resistant Trypanosoma brucei harboring TbAT1 deficient to antitrypanosomal activity against Trypanosoma brucei brucei Lister 427 blood stream form; format: functional
[6] = Resistance factor, ratio of EC50 for antitrypanosomal activity against drug resistant Trypanosoma brucei B48 to antitrypanosomal activity against Trypanosoma brucei brucei Lister 427 blood stream form; format: functional
[7] = Resistance factor, ratio of EC50 for antitrypanosomal activity against drug resistant Trypanosoma brucei ISMR1 to antitrypanosomal activity against Trypanosoma brucei brucei Lister 427 blood stream form; format: functional

| SMILES | EC50 [1] | EC50 [2] | EC50 (MRC5) | selectivity ratio [3] | selectivity ratio [4] | Ratio EC50 [5] | Ratio EC50 [6] | Ratio EC50 [7] |
| --- | --- | --- | --- | --- | --- | --- | --- | --- |
| COc1ncnc2c1c(Br)cn2[C@@H]1O[C@H](CO)C[C@H]1O | 2.6 µM | 3.7 µM | 2.7 µM | 1 | 0.7 |  |  |  |
| COc1ncnc2c1c(-c1ccccc1)cn2[C@@H]1O[C@H](CO)[C@@H](O)[C@H]1O | > 64 µM | > 64 µM | > 64 µM |  |  |  |  |  |
| O=c1[nH]cnc2c1c(F)cn2[C@@H]1O[C@H](CO)[C@@H](O)[C@H]1O | 0.1 µM | 1.06 µM | 2.03 µM | 21 | 1.9 |  |  |  |
| N=C(N)c1ccc(/N=N/Nc2ccc(C(=N)N)cc2)cc1 |  |  |  |  |  | 10.6 | 16.9 | 6.9 |
| COc1ncnc2c1ccn2[C@@H]1O[C@H](CO)C[C@H]1O | > 64 µM | > 64 µM | > 64 µM |  |  |  |  |  |
| OC[C@H]1O[C@@H](n2cc(Cl)c3c(OC4CCCCC4)ncnc32)[C@H](O)[C@@H]1O | 0.4 µM | 0.38 µM | > 64 µM | > 161 | > 168 |  |  |  |
| Nc1nc(Cl)c2c(Br)cn([C@@H]3O[C@H](CO)[C@@H](O)[C@H]3O)c2n1 | 0.13 µM | 0.047 µM | 40.2 µM | 316 | 847 |  |  |  |
| OC[C@H]1O[C@@H](n2cc(C(F)(F)F)c3c(O)ncnc32)[C@H](O)[C@@H]1O | > 64 µM | 10.9 µM | 3.28 µM | 0.1 | 0.3 |  |  |  |
| N=C(N)c1ccc(OCCCCCOc2ccc(C(=N)N)cc2)cc1 |  |  |  |  |  | 1.8 | 94.6 | 13.8 |
| O=c1[nH]cnc2c1c(-c1ccccc1)cn2[C@@H]1O[C@H](CO)[C@@H](O)[C@H]1O | 32.2 µM | 9.4 µM | > 64 µM | > 2 | > 6.8 |  |  |  |
| O=c1[nH]cnc2c1ccn2[C@@H]1O[C@H](CO)C[C@H]1O | 29.6 µM | 2.9 µM | > 64 µM | > 2 | > 22 |  |  |  |

Second part, led by results:

| EC50 [1] | EC50 [2] | SMILES | EC50 (MRC5) | selectivity ratio [3] | selectivity ratio [4] | Ratio EC50 [5] | Ratio EC50 [6] | Ratio EC50 [7] |
| --- | --- | --- | --- | --- | --- | --- | --- | --- |
| > 64 µM | > 64 µM | Nc1ncc2ccn([C@@H]3O[C@H](CO)[C@@H](O)[C@H]3O)c2n1 | > 64 µM |  |  |  |  |  |
| 0.2 µM | 0.12 µM | OC[C@H]1O[C@@H](n2cc(Cl)c3c(OC4CCCC4)ncnc32)[C@H](O)[C@@H]1O | 38.1 µM | 191 | 326 |  |  |  |
| 52.4 µM | 29.2 µM | O=c1[nH]cnc2c1c(Br)cn2[C@@H]1O[C@H](CO)[C@@H](O)[C@H]1O | > 64 µM | > 1.2 | 22 |  |  |  |
| 4.2 µM | 19.1 µM | O=c1[nH]cnc2c1ccn2[C@@H]1O[C@H](CO)[C@@H](O)[C@H]1O [IMMUNICILLIN H] | 31.3 µM | 7.4 | 1.6 |  |  |  |
| 8.1 µM | 23 µM | O=c1[nH]cnc2c1c(Br)cn2[C@@H]1O[C@H](CO)C[C@H]1O | > 64 µM | > 7 | > 28 |  |  |  |
| > 64 µM | 22.3 µM | COc1ncnc2c1c(-c1ccc(Cl)cc1)cn2[C@@H]1O[C@H](CO)[C@@H](O)[C@H]1O | 61.1 µM |  | 2.7 |  |  |  |
| 0.069 µM | 0.036 µM | CCCCOc1ncnc2c1c(Cl)cn2[C@@H]1O[C@H](CO)[C@@H](O)[C@H]1O | 1.32 µM | 19 | 37 |  |  |  |
| > 64 µM | > 64 µM | Nc1nc(O)c2ccn([C@@H]3O[C@H](CO)C[C@H]3O)c2n1 | > 64 µM |  |  |  |  |  |
| > 64 µM | 12.9 µM | Nc1nc2c(ccn2[C@@H]2O[C@H](CO)[C@@H](O)[C@H]2O)c(=O)[nH]1 | > 64 µM |  | > 5 |  |  |  |
